Assays:
Format in all cases: cell-based
Rab10 pThr73 = assay: Rab10 Thr73 dephosphorylation in LRRK2^R1441C MEFs; conditions: Mus musculus; dose response, 4 h treatment
From the text: Primary MEFs were generated as described in a previous study (Wiggin et al., Mol. Cell Biol. 2002 April; 22(8):2871-81.). Briefly, the uterine horn was collected from adult female mice at day E12.5 and transferred to a 10 cm tissue culture dish containing cold PBS. Two forceps were used to tear the yolk sacs to isolate each embryo. Forceps were cleaned thoroughly with 70% ethanol between each embryo isolation. The embryos were culled, and a tissue piece was collected in a PCR tube for genotyping. The red tissue of the embryo, which grows to become the heart and liver, was removed. The remainder of the embryo was minced with a scalpel blade and incubated with 7.5 ml trypsin-EDTA solution for 10 minutes in a 37° C. tissue culture CO2 incubator. The dish was removed from the incubator and checked under a light microscope for single cells. 7.5 ml complete media was added to the trypsinised cells, and the cell suspension was transferred to a 15 ml Falcon tube, centrifuged at 1200 rpm for 5 minutes at room temperature. […]
Culturing and passaging of adherent cell lines were carried out using aseptic technique in CL1 or CL2 (for PBMC isolation) biological safety cabinets. […] The cell pellet was discarded, and supernatant was collected for analysis by quantitative immunoblotting. […] Protein concentrations of cell lysates were determined using the Bradford assay. […]

LRRK2^R1441C = LRRK2^R1441C (Mus musculus, UniProt Q5S006, R1441C); assay: Western blot LRRK2 degradation in LRRK2^R1441C MEFs; conditions: 4 h treatment
Chain of LRRK2^R1441C (Q5S006 whole entry R1441C): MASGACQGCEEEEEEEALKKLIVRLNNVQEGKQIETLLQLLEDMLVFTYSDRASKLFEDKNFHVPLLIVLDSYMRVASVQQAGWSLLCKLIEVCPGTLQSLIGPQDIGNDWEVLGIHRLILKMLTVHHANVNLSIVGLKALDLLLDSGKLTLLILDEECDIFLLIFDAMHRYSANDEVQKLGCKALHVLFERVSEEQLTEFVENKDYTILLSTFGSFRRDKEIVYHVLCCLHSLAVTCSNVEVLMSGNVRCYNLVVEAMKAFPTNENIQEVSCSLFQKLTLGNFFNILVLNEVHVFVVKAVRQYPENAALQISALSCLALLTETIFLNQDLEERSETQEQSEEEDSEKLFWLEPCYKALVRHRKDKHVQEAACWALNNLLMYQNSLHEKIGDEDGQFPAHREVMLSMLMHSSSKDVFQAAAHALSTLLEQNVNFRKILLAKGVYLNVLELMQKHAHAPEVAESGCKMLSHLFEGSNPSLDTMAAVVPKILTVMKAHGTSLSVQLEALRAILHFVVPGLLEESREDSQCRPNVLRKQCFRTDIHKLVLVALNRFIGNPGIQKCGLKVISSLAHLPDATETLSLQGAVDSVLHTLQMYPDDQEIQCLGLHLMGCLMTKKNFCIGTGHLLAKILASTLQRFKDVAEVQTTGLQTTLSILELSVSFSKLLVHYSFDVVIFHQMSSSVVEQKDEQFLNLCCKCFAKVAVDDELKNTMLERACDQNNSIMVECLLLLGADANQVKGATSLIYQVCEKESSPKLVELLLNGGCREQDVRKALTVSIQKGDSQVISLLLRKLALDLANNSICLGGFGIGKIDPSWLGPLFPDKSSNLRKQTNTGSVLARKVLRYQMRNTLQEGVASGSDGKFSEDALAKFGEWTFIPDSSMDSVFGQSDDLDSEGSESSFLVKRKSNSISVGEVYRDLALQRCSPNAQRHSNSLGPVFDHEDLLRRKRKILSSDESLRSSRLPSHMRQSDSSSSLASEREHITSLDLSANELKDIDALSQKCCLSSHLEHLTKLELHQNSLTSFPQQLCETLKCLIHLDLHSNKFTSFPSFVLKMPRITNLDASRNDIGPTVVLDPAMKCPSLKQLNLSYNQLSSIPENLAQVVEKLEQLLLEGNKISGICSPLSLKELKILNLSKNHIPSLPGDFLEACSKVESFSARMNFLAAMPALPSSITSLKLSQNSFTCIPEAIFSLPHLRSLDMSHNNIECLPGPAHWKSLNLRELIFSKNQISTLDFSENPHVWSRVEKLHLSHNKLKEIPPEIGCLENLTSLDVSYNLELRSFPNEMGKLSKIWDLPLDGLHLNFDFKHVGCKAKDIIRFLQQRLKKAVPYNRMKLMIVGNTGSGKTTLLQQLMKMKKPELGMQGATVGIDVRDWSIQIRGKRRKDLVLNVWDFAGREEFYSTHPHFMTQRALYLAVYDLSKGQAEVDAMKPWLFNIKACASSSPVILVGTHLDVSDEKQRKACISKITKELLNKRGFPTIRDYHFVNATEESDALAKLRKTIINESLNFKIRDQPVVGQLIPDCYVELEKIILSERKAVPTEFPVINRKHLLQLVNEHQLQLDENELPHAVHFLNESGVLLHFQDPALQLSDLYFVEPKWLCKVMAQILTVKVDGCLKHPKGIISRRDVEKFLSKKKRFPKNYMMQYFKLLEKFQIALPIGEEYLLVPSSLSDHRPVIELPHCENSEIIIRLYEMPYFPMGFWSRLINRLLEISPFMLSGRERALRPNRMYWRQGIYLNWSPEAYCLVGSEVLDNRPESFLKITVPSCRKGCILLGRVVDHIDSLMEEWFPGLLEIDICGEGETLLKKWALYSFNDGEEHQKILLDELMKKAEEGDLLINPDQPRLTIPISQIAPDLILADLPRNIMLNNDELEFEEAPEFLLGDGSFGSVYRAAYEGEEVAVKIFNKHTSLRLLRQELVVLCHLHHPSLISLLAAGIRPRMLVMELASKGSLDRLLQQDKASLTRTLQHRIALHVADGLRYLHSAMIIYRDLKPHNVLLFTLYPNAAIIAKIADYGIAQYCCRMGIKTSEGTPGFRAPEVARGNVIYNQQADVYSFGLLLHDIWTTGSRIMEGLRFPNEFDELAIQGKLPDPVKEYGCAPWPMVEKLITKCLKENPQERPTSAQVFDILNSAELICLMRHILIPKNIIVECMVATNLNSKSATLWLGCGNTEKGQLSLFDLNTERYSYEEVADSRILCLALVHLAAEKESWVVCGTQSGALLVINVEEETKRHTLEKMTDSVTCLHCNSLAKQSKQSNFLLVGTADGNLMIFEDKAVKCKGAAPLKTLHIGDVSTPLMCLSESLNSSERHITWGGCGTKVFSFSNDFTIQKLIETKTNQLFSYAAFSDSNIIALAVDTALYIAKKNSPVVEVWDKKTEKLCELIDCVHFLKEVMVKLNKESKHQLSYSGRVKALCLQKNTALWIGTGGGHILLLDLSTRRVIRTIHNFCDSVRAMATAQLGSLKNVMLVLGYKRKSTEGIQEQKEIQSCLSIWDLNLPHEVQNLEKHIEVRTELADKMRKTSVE

LRRK2 = LRRK2 (Mus musculus, UniProt Q5S006); assay: LRRK2 degradation in bone marrow-derived macrophages
Chain of LRRK2 (Q5S006 whole entry): as the sequence (Q5S006 whole entry R1441C) above, with C1441R counted along it
From the text: Bone marrow isolation and macrophage differentiation was modified from (Wells et al., 2004), employing L929 preconditioned medium as the source of M-CSF for differentiation. Briefly, scissors and forceps were used to dissect femurs and tibiae from adult mice, and muscle tissue was carefully removed from bones. Clean femurs and tibiae were placed in a tissue culture dish containing complete media. The ends of each bone were cut with scissors to expose bone marrow. Bone marrow was flushed with a 25-gauge needle attached to a 10 ml syringe containing complete media. Media containing bone marrow was passed through a 70 μm cell strainer and precursor cells were plated on non-tissue culture treated 10 cm bacteriological plates containing 10 ml complete media. This was marked as day 0 of isolation. On day three post-isolation, macrophages were topped up with 5 ml fresh complete media. On day seven post-isolation, macrophages were rinsed once with PBS and incubated with Versene for 5 minutes in a 37° C. 5% CO2 tissue culture incubator. Macrophages were detached with cell scrapers and were centrifuged at 1200 rpm for 5 minutes at room temperature. The Versene was aspirated and the remaining cell pellet was resuspended in complete media. The cell suspension was counted, and cells were seeded for experimental analysis in a 6-well format, in tissue culture treated dishes at a final cell density of one million cells per 6-well.
Culturing and passaging of adherent cell lines were carried out using aseptic technique in CL1 or CL2 (for PBMC isolation) biological safety cabinets. All cells were incubated in a 37° C. incubator with 5% CO2. Cell lines were regularly tested for mycoplasma contamination. For western blot assay, the cells were seeded in 6-well plates. […] The cell pellet was discarded, and supernatant was collected for analysis by quantitative immunoblotting. […] Protein concentrations of cell lysates were determined using the Bradford assay. […]

Compound	EC50 (Rab10 pThr73)	Dmax of LRRK2^R1441C degradation (LRRK2^R1441C; dose response)	LRRK2 protein level reduced in macrophages (LRRK2)	DC50 (LRRK2; dose response)	LRRK2^R1441C degradation (in words) (LRRK2^R1441C)	LRRK2 degradation in macrophages (in words) (LRRK2)
CNc1nc(Nc2ccc(C(=O)N3CCN(C[C@H]4CC[C@H](CSC(C)(C)[C@H](NC(=O)C5(F)CC5)C(=O)N5C[C@H](O)CC5C(=O)NCc5ccc(-c6scnc6C)cc5)CC4)CC3)cc2OC)ncc1Cl (stereo partly drawn) [XL01126, (2S,4R)-1-((R)-3-((((1R,4R)-4-((4-(4-((5-chloro-4-(methylamino)pyrimidin-2-yl)amino)-3-methoxybenzoyl)piperazin-1-yl)methyl)cyclohexyl)methyl)thio)-2-(1-fluorocyclopropane-1-carboxamido)-3-methylbutanoyl)-4-hydroxy-N-(4-(4-methylthiazol-5-yl)benzyl)pyrrolidine-2-carboxamide]	30 nM	80-90%	80-90%	55 nM	–	–
CNc1nc(Nc2ccc(C(=O)N3CCN(C[C@H]4CC[C@H](CSC(C)(C)[C@H](NC(=O)C5(F)CC5)C(=O)N5C[C@@H](O)CC5C(=O)NCc5ccc(-c6scnc6C)cc5)CC4)CC3)cc2OC)ncc1Cl (stereo partly drawn) [Cis-XL01126, (2S,4S)-1-((R)-3-((((1r,4R)-4-((4-(4-((5-chloro-4-(methylamino)pyrimidin-2-yl)amino)-3-methoxybenzoyl)piperazin-1-yl)methyl)cyclohexyl)methyl)thio)-2-(1-fluorocyclopropane-1-carboxamido)-3-methylbutanoyl)-4-hydroxy-N-(4-(4-methylthiazol-5-yl)benzyl)pyrrolidine-2-carboxamide]	158 nM	–	–	–	cannot degrade LRRK2^R1441C	cannot degrade LRRK2
